Measured values published in patent EP4660195A1, “CRYSTALLINE FORMS OF AVATROMBOPAG MALEATE AND PREPARATION THEREOF” (NOUCOR HEALTH S.A., priority 2024, dated 2025).
Where a name gives a salt, the structure may show the parent alone. Each block holds one compound with its values, some of them ahead of it.

How the values were obtained:
[1] = Stability of screened solid forms with time; type: physicochemical
Experimental: Form C9 was only exclusively obtained using chloroform as a solvent, which solvent is not suitable for industrial manufacturing of a drug according to regulatory requirements. These solid forms are consequently not suitable for industrial manufacturing of a drug.
Amorphous Avatrombopag maleate (200 mg) was suspended in methanol (10 mL) at room temperature, and stirred for 15 hours, filtered and dried in the air. […] After 24 hours, the solid was analyzed by PXRD again - only form beta was observed. ^1H NMR analysis of said solid form indicated the presence of methanol in the crystalline form. In order to remove the methanol to obtain an anhydrous form, form beta was dried in vacuum for 2 hours at 70°C. After said desolvation step, crystalline forma alpha was obtained.

[2] = pH 1 to 11; cited from earlier work
[3] = in vivo; cited from earlier work
[4] = Solid form stability in climatic chamber at 40°C and 75% RH, monitored by PXRD; type: physicochemical; details: 40°C and 75% RH, 1, 5 and 13 days
Text: (§1) The Powder X-Ray diffraction (PXRD) patterns were acquired on a Bruker D8 Advance Series 2Theta/Theta powder diffraction system using CuKα1-radiation operated at 40 kV and 40 mA in transmission geometry. The system is equipped with a VÅNTEC-1 single photon counting PSD, a Germanium monochromator, a ninety positions auto changer sample stage, fixed divergence slits and a radial soller. Programs used: Data collection with DIFFRAC plus XRD Commander V.2.5.1, and evaluation with High Score Plus 4.9 (Malvern PANalytical B.V.). Measurement conditions: The samples were measured in a range from 4 to 40° in 2θ in a 6 or 30 minutes measurement using an angular step of 0.05° and a time per step of […]. Sample preparation: 20 mg of non-manipulated sample were prepared in standard sample holders using two foils of polyacetate
A sample of Crystalline Form Alpha of Avatrombopag maleate was stored for 13 days in a climatic chamber at 40°C and 75% RH, and the solid form was monitored by PXRD.

[5] = Hygroscopicity by Dynamic Vapor Sorption analysis; type: physicochemical; details: for gain of weight by absorption of water: 25°C
Experimental: Dynamic Vapor Sorption Analysis (DVS) were performed in a Mettler Toledo TGA / DSC 1 LF instrument equipped with a LF SDTA FRS2 sensor and coupled with a Modular Humidity Generator MHG 32. Data collection and evaluation was done with STARe software. Measurement conditions: The samples were analysed following a humidity cycle from 20%RH up to 80%RH, down to 3%RH, up to 90 and down to 3%RH in 10% steps of 30 minutes at 25°C. Sample preparation: Approximately 5-10 mg of sample were weighed (using a MX5 Mettler Toledo microbalance) into 150 µL platinum crucibles without lid.

[6] = Thermal stability at 90 °C for 24 hours, PXRD and 1H NMR; type: physicochemical; details: open or closed vial
Text: as §1
Proton nuclear magnetic resonance analyses (^1H NMR spectroscopy) were recorded in a Bruker 300 NMR spectrometer, equipped with a z gradient 5 mm BBO (Broadband Observe) probe with ATM and an automatic autosampler. Measurement conditions: The samples were analysed at room temperature. Sample preparation: Approximately 2-5 mg of sample were dissolved in 0.7 mL of deuterated solvent (dimethylsulfoxide-d6).

stability of the solid form with time ([1]; listed as C22): lose crystallinity with time
Compound: O=C(Nc1nc(-c2cc(Cl)cs2)c(N2CCN(C3CCCCC3)CC2)s1)c1cnc(N2CCC(C(=O)O)CC2)c(Cl)c1.O=C(O)/C=C\C(=O)O [Form C22, Avatrombopag maleate]

stability of the solid form with time ([1]; listed as C11): unstable
Compound: O=C(Nc1nc(-c2cc(Cl)cs2)c(N2CCN(C3CCCCC3)CC2)s1)c1cnc(N2CCC(C(=O)O)CC2)c(Cl)c1.O=C(O)/C=C\C(=O)O [Form C11, Avatrombopag maleate]

Compound: O=C(Nc1nc(-c2cc(Cl)cs2)c(N2CCN(C3CCCCC3)CC2)s1)c1cnc(N2CCC(C(=O)O)CC2)c(Cl)c1.O=C(O)/C=C\C(=O)O [Avatrombopag maleate]
aqueous solubility [2]: practically insoluble

Compound: O=C(Nc1nc(-c2cc(Cl)cs2)c(N2CCN(C3CCCCC3)CC2)s1)c1cnc(N2CCC(C(=O)O)CC2)c(Cl)c1 [Form C, Avatrombopag maleate]
oral absorption [3]: excellent oral absorption

Compound: O=C(Nc1nc(-c2cc(Cl)cs2)c(N2CCN(C3CCCCC3)CC2)s1)c1cnc(N2CCC(C(=O)O)CC2)c(Cl)c1 [Form B, Avatrombopag maleate]
oral absorption [3]: inferior oral absorption

solid form (PXRD) after storage [4]: preserves its solid form
solid form (PXRD) before and after DVS analysis ([5]; exposure to relative humidity as high as 90%): preserves its solid form
gain of weight by absorption of water ([5]; relative humidity of 70%): below 0.3%
gain of weight by absorption of water ([5]; relative humidity of 80%): below 0.4%
gain of weight by absorption of water ([5]; relative humidity of 90%): below 0.7%
solid form (PXRD, 1H NMR) after heating [6]: preserves its solid form
Compound: O=C(Nc1nc(-c2cc(Cl)cs2)c(N2CCN(C3CCCCC3)CC2)s1)c1cnc(N2CCC(C(=O)O)CC2)c(Cl)c1 [Form alpha, Avatrombopag maleate]

Compound: O=C(Nc1nc(-c2cc(Cl)cs2)c(N2CCN(C3CCCCC3)CC2)s1)c1cnc(N2CCC(C(=O)O)CC2)c(Cl)c1.O=C(O)/C=C\C(=O)O [Form gamma, Avatrombopag maleate]
stability of the solid form with time ([1]; listed as form gamma): spontaneously converted into form beta with time

Compound: O=C(Nc1nc(-c2cc(Cl)cs2)c(N2CCN(C3CCCCC3)CC2)s1)c1cnc(N2CCC(C(=O)O)CC2)c(Cl)c1.O=C(O)/C=C\C(=O)O [Form A, Avatrombopag maleate]
oral absorption [3]: excellent oral absorption

stability of the solid form with time ([1]; listed as C5): lose crystallinity with time
Compound: O=C(Nc1nc(-c2cc(Cl)cs2)c(N2CCN(C3CCCCC3)CC2)s1)c1cnc(N2CCC(C(=O)O)CC2)c(Cl)c1.O=C(O)/C=C\C(=O)O [Form C5, Avatrombopag maleate]
